Assay results published in US20240092784A1, “CONDENSED HETEROCYCLIC COMPOUND” (NISSAN CHEMICAL CORPORATION, priority 2020, published 2024).
Where a name gives a salt, the structure may show the parent alone.

Biological target: human SPR (Homo sapiens (Human), UniProt P35270)
Assay: Evaluation Example 2: Measurement of human SPR inhibitory activity (seven concentrations, sepiapterin absorbance at 420 nm)
Type: biochemical
Conditions: Evaluation Example 2, seven concentrations 0.14 nM to 100 nM, 240 minutes at room temperature, read-out: IC50
Summary of the method: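 Reactions ran 240 min at room temperature in 100 mM Tris-HCl pH 7.5 with 0.01% BSA. They contained tag-cleaved, E. coli-expressed full-length human SPR (diluted to 150 ng/mL), seven compound concentrations from 0.14 to 100 nM, and sepiapterin/NADPH added as a 120 μM/160 μM solution. Inhibition was calculated from sepiapterin absorbance at 420 nm.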

Sequence of human SPR (P35270 whole entry): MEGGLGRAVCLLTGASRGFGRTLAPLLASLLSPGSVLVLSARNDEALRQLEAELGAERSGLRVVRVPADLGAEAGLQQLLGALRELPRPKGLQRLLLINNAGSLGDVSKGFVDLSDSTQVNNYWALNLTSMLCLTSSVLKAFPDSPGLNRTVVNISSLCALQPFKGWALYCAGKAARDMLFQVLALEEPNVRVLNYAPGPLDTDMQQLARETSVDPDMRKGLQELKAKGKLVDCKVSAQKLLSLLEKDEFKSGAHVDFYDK

CC(C)Cn1c(=O)c(C(=O)NC2CC2)c(O)n2ncc(/C=C/C(=O)N3CCC(OC4CCOCC4)CC3)c12 [compound 478, (E)-N-Cyclopropyl-7-hydroxy-4-isobutyl-5-oxo-3-(3-oxo-3-(4-((tetrahydro-2H-pyran-4-yl)oxy)piperidin-1-yl)prop-1-en-1-yl)-4,5-dihydropyrazolo[1,5-a]pyrimidine-6-carboxamide] and CC(C)Cn1c(=O)c(C(=O)NC2CC2)c(O)n2ncc(/C=C/C(=O)N3CCC(C#N)CC3)c12 [compound 468] are within 1.5-fold of each other in IC50: 0.95 nM for the first, 0.84 nM for the second.

CC(C)(C)Cn1c(=O)c(C(=O)NC2CC2)c(O)n2nc3c(c12)CCC(=O)N3 [Synthesis Example 403, N-Cyclopropyl-4-hydroxy-1-neopentyl-2,8-dioxo-1,2,7,8,9,10-hexahydropyrido[2′,3′:3,4]pyrazolo[1,5-a]pyrimidine-3-carboxamide] and CC(C)(C)Cn1c(=O)c(C(=O)NC2CC2)c(O)n2nc3c(c12)CC(=O)N3 [Synthesis Example 402, N-Cyclopropyl-7-hydroxy-4-neopentyl-2,5-dioxo-2,3,4,5-tetrahydro-1H-pyrrolo[2′,3′:3,4]pyrazolo[1,5-a]pyrimidine-6-carboxamide] are within 1.5-fold of each other in IC50: 0.61 nM for the first, 0.63 nM for the second.

Cc1nn2c(O)c(C(=O)NC3CC3)c(=O)n(CC(C)C)c2c1/C=C/C(=O)N1C2CCC1COC2 [Synthesis Example 658, (E)-3-(3-(3-Oxa-8-azabicyclo[3.2.1]octan-8-yl)-3-oxoprop-1-en-1-yl)-N-cyclopropyl-7-hydroxy-4-isobutyl-2-methyl-5-oxo-4,5-dihydropyrazolo[1,5-a]pyrimidine-6-carboxamide] and Cc1nn2c(O)c(C(=O)NC3CC3)c(=O)n(CC(C)C)c2c1/C=C/C(=O)N1CCCC12CCCN(C)C2 (centres unmarked) [Synthesis Example 662, (E)-N-Cyclopropyl-7-hydroxy-4-isobutyl-2-methyl-3-(3-(7-methyl-1,7-diazaspiro[4.5]decan-1-yl)-3-oxoprop-1-en-1-yl)-5-oxo-4,5-dihydropyrazolo[1,5-a]pyrimidine-6-carboxamide] are within 1.5-fold of each other in IC50: 0.78 nM for the first, 1.08 nM for the second.

CC(C)Cn1c(=O)c(C(=O)NC2CC2)c(O)n2ncc(/C=C/C(=O)N(C)C3CCOCC3)c12 [compound 523, (E)-N-Cyclopropyl-7-hydroxy-4-isobutyl-3-(3-(methyl(tetrahydro-2H-pyran-4-yl)amino)-3-oxoprop-1-en-1-yl)-5-oxo-4,5-dihydropyrazolo[1,5-a]pyrimidine-6-carboxamide] and CC(C)Cn1c(=O)c(C(=O)NC2CC2)c(O)n2ncc(/C=C/C(=O)N3CCC[C@H]3C#N)c12 [compound 495, (S,E)-3-(3-(2-Cyanopyrrolidin-1-yl)-3-oxoprop-1-en-1-yl)-N-cyclopropyl-7-hydroxy-4-isobutyl-5-oxo-4,5-dihydropyrazolo[1,5-a]pyrimidine-6-carboxamide] are within 1.5-fold of each other in IC50: 0.71 nM for the first, 0.91 nM for the second.

Cn1ccc(Nc2cc3n(CC(C)(C)C)c(=O)c(C(=O)NC4CC4)c(O)n3n2)n1 [Synthesis Example 346, N-Cyclopropyl-7-hydroxy-2-((1-methyl-1H-pyrazol-3-yl)amino)-4-neopentyl-5-oxo-4,5-dihydropyrazolo[1,5-a]pyrimidine-6-carboxamide] and CC(C)(C)Cn1c(=O)c(C(=O)NC2CC2)c(O)n2nc(-c3cnc(N)nc3)cc12 [Synthesis Example 289, 2-(2-Aminopyrimidin-5-yl)-N-cyclopropyl-7-hydroxy-4-neopentyl-5-oxo-4,5-dihydropyrazolo[1,5-a]pyrimidine-6-carboxamide] are within 1.5-fold of each other in IC50: 1.77 nM for the first, 2.05 nM for the second.

Compared with CC(C)(Cn1c(=O)c(C(=O)NC2CC2)c(O)n2nc(C(N)=O)cc12)C(F)(F)F [Synthesis Example 277, N6-Cyclopropyl-7-hydroxy-5-oxo-4-(3,3,3-trifluoro-2,2-dimethylpropyl)-4,5-dihydropyrazolo[1,5-a]pyrimidine-2,6-dicarboxamide], CC(C)(C)Cn1c(=O)c(C(=O)NC2CC2)c(O)n2nc(N)c(Cl)c12 [compound 447, 2-Amino-3-chloro-N-cyclopropyl-7-hydroxy-4-neopentyl-5-oxo-4,5-dihydropyrazolo[1,5-a]pyrimidine-6-carboxamide hydrochloride] is 2.6-fold higher in IC50: 0.82 nM for the first, 2.16 nM for the second. The first is the more potent here.

CC(C)(C)Cn1c(=O)c(C(=O)NC2CC2)c(O)n2nc(-c3cccnc3C#N)cc12 [Synthesis Example 293, 2-(2-Cyanopyridin-3-yl)-N-cyclopropyl-7-hydroxy-4-neopentyl-5-oxo-4,5-dihydropyrazolo[1,5-a]pyrimidine-6-carboxamide] and CC(C)Cn1c(=O)c(C(=O)NC2CC2)c(O)n2nc(N)c(/C=C/C(C)(C)C)c12 [Synthesis Example 439, (E)-2-Amino-N-cyclopropyl-3-(3,3-dimethylbut-1-en-1-yl)-7-hydroxy-4-isobutyl-5-oxo-4,5-dihydropyrazolo[1,5-a]pyrimidine-6-carboxamide hydrochloride] are within 1.5-fold of each other in IC50: 2.24 nM for the first, 1.61 nM for the second.

CC(C)Cn1c(=O)c(C(=O)NC2CC2)c(O)n2ncc(C(=O)NCc3ccc(C(F)(F)F)nc3)c12 [Synthesis Example 226, N6-Cyclopropyl-7-hydroxy-4-isobutyl-5-oxo-N3-((6-(trifluoromethyl)pyridin-3-yl)methyl)-4,5-dihydropyrazolo[1,5-a]pyrimidine-3,6-dicarboxamide] and CC(C)Cn1c(=O)c(C(=O)NC2CC2)c(O)n2ncc(COc3ccccc3)c12 [Synthesis Example 260, N-Cyclopropyl-7-hydroxy-4-isobutyl-5-oxo-3-(phenoxymethyl)-4,5-dihydropyrazolo[1,5-a]pyrimidine-6-carboxamide] are within 1.5-fold of each other in IC50: 1.07 nM for the first, 1.27 nM for the second.

CC(C)Cn1c(=O)c(C(=O)NCC(F)(F)F)c(O)n2ncc(/C=C/C(=O)N3CCOCC3)c12 [compound 552, (E)-7-Hydroxy-4-isobutyl-3-(3-morpholino-3-oxoprop-1-en-1-yl)-5-oxo-N-(2,2,2-trifluoroethyl)-4,5-dihydropyrazolo[1,5-a]pyrimidine-6-carboxamide] and CC(C)Cn1c(=O)c(C(=O)NC2CC2)c(O)n2ncc(/C=C/C(=O)N3C[C@@H]4C[C@H]3CO4)c12 [compound 539, 3-((E)-3-((1S,4S)-2-Oxa-5-azabicyclo[2.2.1]heptan-5-yl)-3-oxoprop-1-en-1-yl)-N-cyclopropyl-7-hydroxy-4-isobutyl-5-oxo-4,5-dihydropyrazolo[1,5-a]pyrimidine-6-carboxamide] are within 1.5-fold of each other in IC50: 0.88 nM for the first, 0.64 nM for the second.

Same assay, conditions: sepiapterin absorbance, Table 41, read-out: concentration at 50% inhibition of human SPR (IC50)

First: COCCN(C)C(=O)/C=C/c1c(C)nn2c(O)c(C(=O)NC3CC3)c(=O)n(CC(C)C)c12 [Synthesis Example 750, (E)-N-Cyclopropyl-7-hydroxy-4-isobutyl-3-(3-((2-methoxyethyl)(methyl)amino)-3-oxoprop-1-en-1-yl)-2-methyl-5-oxo-4,5-dihydropyrazolo[1,5-a]pyrimidine-6-carboxamide]
Second: CC(C)Cn1c(=O)c(C(=O)NC2CC2)c(O)n2ncc(/C=C/C(=O)N3CCc4cc(F)ccc43)c12 [Synthesis Example 731, (E)-N-Cyclopropyl-3-(3-(5-fluoroindolin-1-yl)-3-oxoprop-1-en-1-yl)-7-hydroxy-4-isobutyl-5-oxo-4,5-dihydropyrazolo[1,5-a]pyrimidine-6-carboxamide]
The IC50 of the first is 3-fold lower: 0.96 nM for the first, 2.89 nM for the second. The first is the more potent here.
